What was measured:
[1] = system: wild-type Arabidopsis thaliana plants; experiment: Herbicide tolerance of wild-type Arabidopsis thaliana plants, resistance classes counted after spraying; format: in vivo
From the text: T1 transformants were initially selected from the background of untransformed seeds using a glufosinate selection scheme. About 40000 T1 seeds were screened, and 380 T1 positive transformants (PAT gene) were identified with a transformation efficiency of about 0.95%. The plants that were transformed with the recombinant expression vector DBN100632 were Arabidopsis thaliana plants having an ALT-1-01 nucleotide sequence located in the cytoplasm introduced (At cytoplasmic ALT-1-01), and the plants that were transformed with the recombinant expression vector DBN100631 were Arabidopsis thaliana plants having an ALT-1-01 nucleotide sequence located in the chloroplast introduced (At chloroplastic ALT-1-01); the plants that were transformed with the recombinant expression vector DBN100634 were Arabidopsis thaliana plants having an ALT-2-01 nucleotide sequence located in the cytoplasm introduced (At cytoplasmic ALT-2-01), and the plants that were transformed with the recombinant expression vector DBN100633 were Arabidopsis thaliana plants having an ALT-2-01 nucleotide sequence located in the chloroplast introduced (At chloroplastic ALT-2-01); and the plants that were transformed with the recombinant expression vector DBN100636 were Arabidopsis thaliana plants having an ALT-3-01 nucleotide sequence located in the cytoplasm introduced (At cytoplasmic ALT-3-01), and the plants that were transformed with the recombinant expression vector DBN100635 were Arabidopsis thaliana plants having an ALT-3-01 nucleotide sequence located in the chloroplast introduced (At chloroplastic ALT-3-01). The herbicide tolerance effects of At cytoplasmic ALT-1-01 T1 plants, At chloroplastic ALT-1-01 T1 plants, At cytoplasmic ALT-2-01 T1 plants, At chloroplastic ALT-2-01 T1 plants, At cytoplasmic ALT-3-01 T1 plants, At chloroplastic ALT-3-01 T1 plants and wild-type Arabidopsis thaliana plants on Sulfometuron-methyl were detected (14 days after sowing), respectively.
At cytoplasmic ALT-1-01 T1 plants, At chloroplastic ALT-1-01 T1 plants, At cytoplasmic ALT-2-01 T1 plants, At chloroplastic ALT-2-01 T1 plants, At cytoplasmic ALT-3-01 T1 plants, At chloroplastic ALT-3-01 T1 plants and wild-type Arabidopsis thaliana plants were sprayed with Sulfometuron-methyl (30 g ai/ha, 1-fold field concentration) and a blank solvent (water), respectively. Plants were counted for the resistance situations 14 days after spraying: those having a consistent growth status with the blank solvent (water) group after 14 days were classified as highly resistant plants, those having a bolting height less than ½ of that of the blank solvent (water) group after 14 days were classified as moderately resistant plants, those still not capable of bolting after 14 days were classified as poorly resistant plants, and those dead after 14 days were classified as non-resistant plants. Since each Arabidopsis thaliana T1 plant was an independent transformation event, a significant difference in individual T1 responses could be expected at a given dose.
At cytoplasmic ALT-1-01 T1 plants, At chloroplastic ALT-1-01 T1 plants, At cytoplasmic ALT-2-01 T1 plants, At chloroplastic ALT-2-01 T1 plants, At cytoplasmic ALT-3-01 T1 plants, At chloroplastic ALT-3-01 T1 plants and wild-type Arabidopsis thaliana plants in Example 4 were sprayed with iodosulfuron-methyl (10 g ai/ha, 1-fold field concentration), mesosulfuron (14 g ai/ha, 1-fold field concentration) and oxasulfuron (60 g ai/ha, 1-fold field concentration), respectively, in addition to Sulfometuron-methyl (30 g ai/ha, 1-fold field concentration) and the blank solvent (water). […]

[2] = system: wild-type maize plants (CK2); experiment: Sulfometuron-methyl tolerance of wild-type maize plants, damage degree; format: in vivo; conditions: 120 g ai/ha
From the text: The herbicide tolerance effects of Zm cytoplasmic ALT-1-02 maize plants, Zm chloroplastic ALT-1-02 maize plants, Zm cytoplasmic ALT-2-02 maize plants, Zm chloroplastic ALT-2-02 maize plants, Zm cytoplasmic ALT-3-02 maize plants, Zm chloroplastic ALT-3-02 maize plants and wild-type maize plants on Sulfometuron-methyl were detected (at V3-V4 stage), respectively.
Zm cytoplasmic ALT-1-02 maize plants, Zm chloroplastic ALT-1-02 maize plants, Zm cytoplasmic ALT-2-02 maize plants, Zm chloroplastic ALT-2-02 maize plants, Zm cytoplasmic ALT-3-02 maize plants, Zm chloroplastic ALT-3-02 maize plants and wild-type maize plants were respectively taken and sprayed with Sulfometuron-methyl (120 g ai/ha, 4-fold field concentration) and a blank solvent (water). The damage degree caused by the herbicide was measured for each plant according to the plant growth status 3 days after spraying (3 DAT), 7 days after spraying (7 DAT), 14 days after spraying (14 DAT) and 21 days after spraying (21 DAT), respectively: considering a growth status equivalent to that of the untreated plants as having a damage degree of 0%; considering conditions of leaves being partially chlorotic and yellow but substantially not affecting the plant normal growth as having a damage degree of 50%; and considering the whole plant being purple and dying as having a damage degree of 100%. There were 2 strains in Zm cytoplasmic ALT-1-02 maize plants in total (S13 and S14), 2 strains in Zm chloroplastic ALT-1-02 maize plants in total (S15 and S16), 2 strains in Zm cytoplasmic ALT-2-02 maize plants in total (S17 and S18), 2 strains in Zm chloroplastic ALT-2-02 maize plants in total (S19 and S20), 2 strains in Zm cytoplasmic ALT-3-02 maize plants in total (S21 and S22), 2 strains in Zm chloroplastic ALT-3-02 maize plants in total (S23 and S24), and 1 strain in wild-type maize plants (CK2) in total; and 10-15 plants were selected from each strain and tested.

[3] = 1-fold field concentration (g ai/ha: Sulfometuron-methyl 30, iodosulfuron-methyl 10, mesosulfuron 14, oxasulfuron 60), 14 days after spraying

COC(=O)c1ccccc1S(=O)(=O)NC(=O)Nc1nc(C)cc(C)n1 [Sulfometuron-methyl, 2-(4,6-dimethylpyrimidine-2-amino-formamido-sulfonyl) methyl benzoate]
Highly resistant (number of plants with growth status consistent with blank solvent group) [1, 3]: 0 | Moderately resistant (number of plants with bolting height less than 1/2 of blank solvent group) [1, 3]: 0 | Non-resistant (number of plants dead) [1, 3]: 32 | Poorly resistant (number of plants still not capable of bolting) [1, 3]: 0 | herbicide tolerance of wild-type plants ([1]; 30 g ai/ha): none of the wild-type Arabidopsis thaliana plants was tolerant | Average damage % 3DAT ([2]; CK2 (wild-type maize), 4-fold field concentration, 3 days after spraying): 44% | Average damage % 7DAT ([2]; CK2 (wild-type maize), 4-fold field concentration, 7 days after spraying): 87% | Average damage % 14DAT ([2]; CK2 (wild-type maize), 4-fold field concentration, 14 days after spraying): 100% | Average damage % 21DAT ([2]; CK2 (wild-type maize), 4-fold field concentration, 21 days after spraying): 100% | herbicide tolerance of wild-type plants ([2]; wild-type maize plants): not tolerant

From US20190055576A1, “USE OF HERBICIDE-TOLERANT PROTEIN” (BEIJING DABEINONG TECHNOLOGY GROUP CO., LTD., priority 2016, published 2019)
